# In patent US5219874A, “Heterocyclic acids” (Imperial Chemical Industries PLC, priority 1991, dated 1993):
# pIC50: −log10 of the molar value.
# Legend:
# [1] = target: T1, U46619 stimulated platelet aggregation (Homo sapiens, UniProt P21731); assay: test (b): blood platelet aggregation test, TXA2 antagonism against U46619; format: cell-based; conditions: human platelet-rich plasma; agonist U46619; read-out: pA2, test (b) (converted)
# T1 construct: aggregating human, citrated, platelet-rich plasma; endogenous in cells; host or cells: human platelets in citrated platelet-rich plasma
# T1 sequence (P21731 1-343): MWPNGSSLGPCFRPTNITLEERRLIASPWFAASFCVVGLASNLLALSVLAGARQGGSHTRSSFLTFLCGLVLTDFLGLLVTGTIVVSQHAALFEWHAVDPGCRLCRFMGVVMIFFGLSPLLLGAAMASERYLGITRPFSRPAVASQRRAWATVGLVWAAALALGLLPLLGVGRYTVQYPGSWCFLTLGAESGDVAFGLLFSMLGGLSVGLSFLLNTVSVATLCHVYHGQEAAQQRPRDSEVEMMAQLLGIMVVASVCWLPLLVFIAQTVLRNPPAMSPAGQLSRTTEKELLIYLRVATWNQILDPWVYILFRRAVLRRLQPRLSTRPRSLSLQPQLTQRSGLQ
# Source text: (b) a blood platelet aggregation test based on that described by Born (Nature, 1962, 194, 927-929) and involving:
# (i) aggregating human, citrated, platelet-rich plasma by addition of the TXA2 mimetic agent U46619 so that a dose-response curve is generated;
# (ii) generating a dose-response curve for U46619 stimulated platelet aggregation in the presence of increasing amounts of test compound (generally in the range 10^-5 M to 10^-10 M); and
# (iii) calculating a pA2 value indicating potency of TXA2 antagonism for the test compound, averaged over several concentrations, from the calculated 50% response value for U46619 aggregation in the presence and absence of test compound; or […]
# [2] = target: T2, TXA2 synthase (Homo sapiens, UniProt P24557); assay: test (e): TXA2 synthase inhibition in human platelet microsomal preparation; format: biochemical; conditions: [1-^14 C]arachidonic acid
# T2 construct: using a human platelet microsomal TXA2 synthase preparation; from tissue; host or cells: human platelet microsomes
# T2 sequence (P24557 1-533): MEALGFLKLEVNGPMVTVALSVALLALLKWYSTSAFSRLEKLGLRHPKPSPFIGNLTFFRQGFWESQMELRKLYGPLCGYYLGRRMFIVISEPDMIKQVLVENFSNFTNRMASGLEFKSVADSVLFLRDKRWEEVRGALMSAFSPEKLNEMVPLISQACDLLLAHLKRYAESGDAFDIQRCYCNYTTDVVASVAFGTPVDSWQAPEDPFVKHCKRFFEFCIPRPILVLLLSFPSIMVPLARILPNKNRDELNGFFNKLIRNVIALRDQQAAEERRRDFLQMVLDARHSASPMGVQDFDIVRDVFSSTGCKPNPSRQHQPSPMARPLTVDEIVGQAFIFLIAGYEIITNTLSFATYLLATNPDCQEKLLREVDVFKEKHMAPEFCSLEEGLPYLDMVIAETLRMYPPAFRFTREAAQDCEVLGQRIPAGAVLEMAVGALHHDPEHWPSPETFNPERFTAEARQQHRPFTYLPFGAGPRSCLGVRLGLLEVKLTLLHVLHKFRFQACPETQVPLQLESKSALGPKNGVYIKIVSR
# [3] = target: T3, prostacyclin synthase (Homo sapiens, UniProt Q16647); assay: test (g): prostacyclin synthase inhibition in cultured human endothelial cells (6-oxoPGF1a radioimmunoassay); format: cell-based
# T3 construct: obtaining cultured human endothelial cells from unbilical vein; endogenous in cells; host or cells: cultured human umbilical vein endothelial cells
# T3 sequence (Q16647 1-500): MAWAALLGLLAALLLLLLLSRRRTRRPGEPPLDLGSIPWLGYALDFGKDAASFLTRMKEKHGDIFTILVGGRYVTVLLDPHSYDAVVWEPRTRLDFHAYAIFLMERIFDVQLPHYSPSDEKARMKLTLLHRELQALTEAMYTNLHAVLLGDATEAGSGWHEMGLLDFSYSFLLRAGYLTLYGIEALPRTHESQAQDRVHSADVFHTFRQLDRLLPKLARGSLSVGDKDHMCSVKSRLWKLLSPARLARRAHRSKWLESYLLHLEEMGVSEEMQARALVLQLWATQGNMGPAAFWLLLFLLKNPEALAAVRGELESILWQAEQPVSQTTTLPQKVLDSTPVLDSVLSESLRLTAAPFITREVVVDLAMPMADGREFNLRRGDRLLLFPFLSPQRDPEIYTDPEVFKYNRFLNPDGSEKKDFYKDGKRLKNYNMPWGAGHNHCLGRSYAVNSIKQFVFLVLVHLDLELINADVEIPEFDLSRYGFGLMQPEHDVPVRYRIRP
# Method: The growth medium is aspirated from the wells and the endothelial cell monolayers are washed twice with alquots of medium (1 ml, Earls 199 medium) containing vehicle or compound. The monolayers are first incubated with medium containing vehicle or compound for 30 minutes at 37° C. Arachidonic acid (10 micro M) is added to the medium and the monolayers are incubated for a further 2 hours with a fresh aliquot of medium. The incubation is terminated by aspiration of the medium into indomethacin (1 micro M). The sample is stored at -20° C. and radioimmunoassay for the stable metabolite 6-oxoPGF1a is performed. By comparison of the amount of 6-oxoPGF1a present in a sample incubated in the presence of compound to one incubated in the absence of compound, the prostacyclin synthase inhibitory properties of the compound may be assessed.
compound,measurement,setting,value
Cc1ccc(OC(C)(C)[C@H]2OC[C@@H](C/C=C\CCC(=O)O)[C@@H](c3cncs3)O2)c([N+](=O)[O-])c1 [Example 2],Kb,[1],7.76 nM
same,pIC50,[2],7.80
same,"prostacyclin inhibitory properties, test (g)",[3]; IC50 greater than 100 micro M deemed no significant inhibition,no significant prostacyclin inhibitory properties
same,pIC50,"[3]; human endothelial cells from umbilical vein, unit inferred",3.68
